Data as given in the NIST ThermoML archive (doi:10.1016/j.fluid.2013.07.010).
± gives the expanded uncertainty stated by the source.

How the values were obtained:
[1] = Crystal; DTA
[2] = Molar enthalpy of transition or fusion; details: Crystal; DSC

Nc1ccc(Oc2ccc(N)cc2)cc1 [4,4'-diaminodiphenyl ether]
Normal melting temperature [1]: 189.52 ± 0.39 °C
Molar enthalpy of transition or fusion [2]: 9.05 ± 0.406 kcal/mol
